Experimental data: the PolyMetriX glass transition set
± gives the standard deviation of the reports.

| SMILES | glass transition temperature [°C] |
| --- | --- |
| *CC(c1ccccc1)C1C(=O)N(CCN(CC)c2ccc(/N=N/c3ccc([N+](=O)[O-])cc3)cc2)C(=O)C1* (repeat unit) | 172.00 |
| *Oc1ccc(C2(c3ccc(OC(=O)c4ccc(C(*)=O)cc4)cc3)c3ccccc3C(=O)c3ccccc32)cc1 (repeat unit) | 400.00 |
| *CC(*)(C)C(=O)Oc1ccc(/N=N/c2ccc(OC)cc2)cc1 (repeat unit) | 120.00 |
| *c1ccc([Si](CCCC)(CCCC)[Si](*)(CCCC)CCCC)s1 (repeat unit) | -53.00 |
| *O[Si](C)(C)c1ccc2cc3cc([Si](*)(C)C)ccc3cc2c1 (repeat unit) | 118.00 |
| *CCC1CC(*)C2C3CCC(C3)C12 (repeat unit) | 164.00 |
| *C(=O)OCC(C)(C)CSCC(C)(C)COC(=O)C1(C)CNC(*)(C)CN1 (repeat unit) | 40.00 |
| *C(=O)Nc1ccc(C2(c3ccc(N4C(=O)c5ccc(*)cc5C4=O)cc3)CCCCC2)cc1 (repeat unit) | 319.00 |
| *c1cc(N2C(=O)c3ccc(Oc4cc5ccccc5cc4Oc4ccc5c(c4)C(=O)N(*)C5=O)cc3C2=O)cc(C(F)(F)F)c1 (repeat unit) | 250.00 |
| *N=P(*)(CCC)CCC (repeat unit) | 10.00 |
| *CC(*)C(=O)Nc1ccc(Cl)cc1 (repeat unit) | 76.00 |
| *c1ccc2c(c1)C(=O)N(c1cccc(C(F)(F)C(F)(F)C(F)(F)c3cccc(N4C(=O)c5ccc(C(F)(F)C(F)(F)C(*)(F)F)cc5C4=O)c3)c1)C2=O (repeat unit) | 157.00 |
| *CCCOC(=O)c1ccc(C(=O)O*)cc1 (repeat unit) [Poly(trimethylene terephthalate)] | 52.92 ± 1.3 |
| *CCCS* (repeat unit) | -53.50 |
| *CCCCCC(=O)Nc1ccc(Oc2cccc(NC(=O)CCCCCN3C(=O)c4ccc(C(=O)c5ccc6c(c5)C(=O)N(*)C6=O)cc4C3=O)c2)cc1 (repeat unit) | 170.00 |
| *OC(CCCCCCC=C)CC(*)=O (repeat unit) | -50.00 |
| *Cc1ccc2oc(=O)c(C(=O)Nc3ccc(Oc4ccc(C(c5ccc(Oc6ccc(NC(=O)c7cc8cc(*)ccc8oc7=O)cc6)cc5)(C(F)(F)F)C(F)(F)F)cc4)cc3)cc2c1 (repeat unit) | 283.00 |
| *CC(=O)Nc1ccc(Oc2ccc(-c3ccc(Oc4ccc(NC(=O)CN5C(=O)c6ccc(C(c7ccc8c(c7)C(=O)N(*)C8=O)(C(F)(F)F)C(F)(F)F)cc6C5=O)cc4)cc3)cc2)cc1 (repeat unit) | 245.00 |
| *CC(*)C1CCCCC1C (repeat unit) | 186.00 |
| */C(=C/c1cc(OC)c(/C=C(/c2ccc(*)cc2)c2ccc(OC)cc2)cc1OC)c1ccc(OC)cc1 (repeat unit) | 170.00 |
| *CCCCNC(=O)C(=O)N* (repeat unit) | 120.00 |

| SMILES | glass transition temperature [°C] |
| --- | --- |
| *c1ccc(-c2ccc(N3C(=O)c4ccc(Oc5c(C)cc(C(C)(C)c6cc(C)c(Oc7ccc8c(c7)C(=O)N(*)C8=O)c(C)c6)cc5C)cc4C3=O)cc2C(F)(F)F)c(C(F)(F)F)c1 (repeat unit) | 262.00 |
| *CCCCC[Si](*)(C)c1ccccc1 (repeat unit) | -10.40 |
| *OP(=O)(Oc1ccccc1)Oc1ccc(*)cc1 (repeat unit) | 97.00 |
| *CC(C[Si](*)(C)C)c1ccccc1 (repeat unit) | -5.00 |
| *C(C)C(*)C(=O)OCC (repeat unit) | 157.00 |
| *CCCCCCCCCCCCN1C(=O)c2ccc(C(c3ccc4c(c3)C(=O)N(CCCCCCCCCCCCN3C(=O)c5ccc6c7ccc8c9c(ccc(c%10ccc(c5c6%10)C3=O)c97)C(=O)N(*)C8=O)C4=O)(C(F)(F)F)C(F)(F)F)cc2C1=O (repeat unit) | 170.00 |
| *O[Si](*)(C)CCCCCCCCCCC(=O)OCCC(F)(F)C(F)(F)C(F)(F)C(F)(F)C(F)(F)C(F)(F)C(F)(F)C(F)(F)F (repeat unit) | -78.00 |
| *Oc1ccc(Oc2ccc(C(=O)c3cccc4cccc(C(=O)c5ccc(*)cc5)c34)cc2)cc1 (repeat unit) | 202.00 |
| *CC(*)(C)C(=O)OCCCCOc1ccc(OC(=O)c2ccc(-c3ccc(OC)cc3)cc2)cc1 (repeat unit) | 77.00 |
| *CC(*)(C)C(=O)OC1CCC1 (repeat unit) | 119.00 |
| *c1ccc(C(=O)Nc2cccc(S(=O)(=O)c3cccc(NC(=O)c4ccc(N5C(=O)c6ccc(-c7ccc8c(c7)C(=O)N(*)C8=O)cc6C5=O)cc4)c3)c2)cc1 (repeat unit) | 256.00 |
| *c1ccc(CCc2ccc(N3C(=O)C(=O)N(c4ccc(CCc5ccccc5N5C(=O)C(=O)N(*)C5=O)cc4)C3=O)cc2)cc1 (repeat unit) | 220.00 |
| *c1ccc(N2C(=O)c3ccc(C(=O)c4ccc5c(c4)C(=O)N(c4ccc(-c6nc7cc(Oc8ccc9nc(-c%10ccccc%10)c(*)nc9c8)ccc7nc6-c6ccccc6)cc4)C5=O)cc3C2=O)cc1 (repeat unit) | 254.00 |
| *CCC/C=C(/*)c1ccc(OC)cc1 (repeat unit) | 11.00 |
| *CC(CO*)(CS(=O)(=O)CCC)CS(=O)(=O)CCC (repeat unit) | 71.00 |
| *c1ccc(Oc2ccc(P(=O)(c3ccccc3)c3ccc(Oc4ccc(-c5cc(*)n(-c6ccccc6)n5)cc4)cc3)cc2)cc1 (repeat unit) | 239.00 |
| *CC(*)(CC(=O)OC)C(=O)OC12CC3CC(CC(C3)C1)C2 (repeat unit) | 197.00 |
| *CC(CCCC)O* (repeat unit) | -69.00 |
| *C(=O)Nc1ccc(Oc2cccc(NC(=O)c3ccc4c(c3)C(=O)N(c3ccc(Oc5cccc(N6C(=O)c7ccc(*)cc7C6=O)c5)cc3)C4=O)c2)cc1 (repeat unit) | 211.00 |
| *Oc1c(C)cc(*)cc1C(C)CCCCCC (repeat unit) | 54.00 |
| *Nc1cc(NC(=O)c2ccc(C(*)=O)cc2)cc(C(=O)Oc2cccc3ccccc23)c1 (repeat unit) | 192.00 |

The remaining lines, values ahead:

| glass transition temperature [°C] | SMILES |
| --- | --- |
| 195.00 | *Nc1ccc(Cc2ccc(NC(=O)c3cc(NC(=O)CCCCCN4C(=O)c5ccccc5C4=O)cc(C(*)=O)c3)cc2)cc1 (repeat unit) |
| 130.00 | *c1ccc(Oc2ccc(C(C)(C)c3ccc(Oc4ccc(-c5ccc(*)s5)cc4C(F)(F)F)cc3)cc2)c(C(F)(F)F)c1 (repeat unit) |
| -106.00 | *O[Si](C)(C)O[Si](C)(C)O[Si](C)(C)O[Si](C)(C)O[Si](C)(C)OC(C)CCC(*)C (repeat unit) |
| 335.00 | *c1ccc(C(=O)Nc2ccc(N3C(=O)c4ccc(-c5ccc6c(c5)C(=O)N(*)C6=O)cc4C3=O)cc2)cc1 (repeat unit) |
| -78.60 | *CCC(C)CCOC(=O)CCCCC(=O)O* (repeat unit) |
| 53.00 | *CCCCOc1ccc(C(=O)OCCOC(=O)c2ccc(O*)cc2)cc1 (repeat unit) |
| 38.00 | *CC(*)(C)C(=O)OCc1ccc2c(c1)OCCOCCOCCOCCO2 (repeat unit) |
| 217.00 | *C(=O)Oc1ccc(C2(c3ccc(OC(=O)c4ccc5c(c4)C(=O)N(c4ccc(-c6ccc(N7C(=O)c8ccc(*)cc8C7=O)cc6C)c(C)c4)C5=O)cc3)CCC(C(C)(C)C)CC2)cc1 (repeat unit) |
| 322.00 | *c1ccc2c(c1)Cc1cc(-n3c(=O)c4cc5c(=O)n(*)c(=O)c5cc4c3=O)ccc1-2 (repeat unit) |
| -20.00 | *c1ccc(-c2ccc([Si](CCCC)(CCCC)[Si](*)(CCCC)CCCC)s2)s1 (repeat unit) |
| 133.00 | *Oc1ccc(/N=C/C=N/c2ccc(OC(=O)Nc3ccc(Cc4ccc(NC(*)=O)cc4)cc3)cc2)cc1 (repeat unit) |
| 164.00 | *Oc1ccc2ccc(Oc3ccc(C(=O)Nc4cccc(Oc5ccc(NC(=O)c6ccc(*)cc6)cc5)c4)cc3)cc2c1 (repeat unit) |
| 213.00 | *Oc1ccc(OC(=O)c2ccc(C(*)=O)cc2)cc1C1CCCCCCC1 (repeat unit) |
| 143.20 | *CC(O)COc1ccc(Cc2ccc(O*)cc2)cc1 (repeat unit) |
| 63.00 | *Oc1ccc(OC(=O)c2cc(OCCCCCOCC3CCCN3c3ccc([N+](=O)[O-])cc3)c(C(*)=O)cc2OCCCCCOCC2CCCN2c2ccc([N+](=O)[O-])cc2)cc1 (repeat unit) |
| 128.00 | *Oc1c(Br)cc(C(C)(C)c2cc(Br)c(OC(=O)c3ccc(OCCCCCCCCCCOc4ccc(C(*)=O)cc4)cc3)c(Br)c2)cc1Br (repeat unit) |
| 35.00 | *O[Si](C)(C)CCCCCCOC(=O)C(C)Oc1ccc(OC(=O)c2ccc(-c3ccc(OCCCCCCCCCC[Si](*)(C)C)cc3)cc2)cc1 (repeat unit) |
| 127.00 | *OS(=O)(=O)c1cccc(S(=O)(=O)Oc2ccc(C3(c4ccc(*)cc4)CCCCC3)cc2)c1 (repeat unit) |
| 268.00 | *c1ccc(N2C(=O)c3ccc(Oc4ccc(C(C)(C)c5cccc(Oc6ccc7c(c6)C(=O)N(*)C7=O)c5)cc4)cc3C2=O)cc1 (repeat unit) |
| 37.00 | *CC(*)OCCCCCCCCCCCOc1ccc(C(=O)Oc2ccc(C#N)cc2)cc1 (repeat unit) |
| 334.00 | *c1ccc(Oc2ccc(-c3ccc(-c4ccc(-c5ccc(Oc6ccc(-c7c8c(c(*)c9ccccc79)C(=O)N(c7ccccc7)C8=O)cc6)c(C(F)(F)F)c5)cc4)cc3)cc2C(F)(F)F)cc1 (repeat unit) |
| 45.00 | *O[Si](*)(C)CCCCCCOc1ccc(C(=O)Oc2ccc(C#N)cc2C)cc1 (repeat unit) |
| 376.00 | *c1ccc(-c2cnc3ccc(-c4ccc5ncc(*)nc5c4)cc3n2)cc1 (repeat unit) |
| 217.00 | *CC1CC2CC1C1CCC(CN3C(=O)c4ccc(C(=O)c5ccc6c(c5)C(=O)N(*)C6=O)cc4C3=O)C21 (repeat unit) |
